# Source: ChEMBL document CHEMBL1201862, “PubChem BioAssay data set” (2004)
# Active and inactive are the calls of the source. Rule as the data show it: actives have a measured IC50 and inactives only a lower limit.
# Target: Envelope glycoprotein gp160 (Human immunodeficiency virus 1, UniProt Q6QLK5)
# Assay: cell-free HIV fusion peptide-binding blockers – biochemical, uHTS, fluorescence dequenching, […] (AID 1986)
# Sequence of Envelope glycoprotein gp160 (Q6QLK5 whole entry, the tested form may be a part): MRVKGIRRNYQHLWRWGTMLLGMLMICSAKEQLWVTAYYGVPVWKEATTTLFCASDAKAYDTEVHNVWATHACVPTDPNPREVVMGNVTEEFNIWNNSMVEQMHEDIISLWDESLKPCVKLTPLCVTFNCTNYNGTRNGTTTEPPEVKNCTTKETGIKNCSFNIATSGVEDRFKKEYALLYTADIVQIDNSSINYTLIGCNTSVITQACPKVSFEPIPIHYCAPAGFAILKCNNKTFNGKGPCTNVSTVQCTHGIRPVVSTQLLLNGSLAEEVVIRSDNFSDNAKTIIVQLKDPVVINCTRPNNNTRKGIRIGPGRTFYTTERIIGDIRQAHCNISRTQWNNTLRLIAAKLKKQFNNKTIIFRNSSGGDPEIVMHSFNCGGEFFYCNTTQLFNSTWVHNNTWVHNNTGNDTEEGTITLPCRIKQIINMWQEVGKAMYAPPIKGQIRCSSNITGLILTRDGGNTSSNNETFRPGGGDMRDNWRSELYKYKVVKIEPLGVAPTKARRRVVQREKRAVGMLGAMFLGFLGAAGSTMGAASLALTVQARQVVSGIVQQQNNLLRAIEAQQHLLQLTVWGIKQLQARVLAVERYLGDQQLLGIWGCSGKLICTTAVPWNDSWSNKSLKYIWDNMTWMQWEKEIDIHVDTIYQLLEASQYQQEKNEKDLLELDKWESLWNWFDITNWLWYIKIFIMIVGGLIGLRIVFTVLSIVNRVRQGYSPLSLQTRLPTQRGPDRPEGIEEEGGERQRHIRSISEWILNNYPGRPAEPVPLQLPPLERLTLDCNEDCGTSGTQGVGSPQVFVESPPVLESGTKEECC
row,Compound,IC50
1,COc1cc(/C=C2\SC(=S)NC2=O)ccc1OS(=O)(=O)c1ccccc1,18 µM (active)
2,CCOc1ccc(NC(=NCc2ccc3c(c2)OCO3)SC2CC(=O)N(c3ccc(C(=O)O)cc3)C2=O)cc1 (stereo not drawn),25.9 µM (active)
3,CC(Oc1ccc(Cl)cc1Cl)C(=O)Nc1ccc(S(=O)(=O)Nc2cnc3ccccc3n2)cc1 (stereo not drawn),15.7 µM (active)
